{"source": "ChEMBL document CHEMBL1201862", "about": "“PubChem BioAssay data set” (2004)", "key": {"[1]": {"biological_target": "T1, Sentrin-specific protease 8 (Homo sapiens, UniProt Q96LD8)", "T1 sequence (Q96LD8 whole entry)": "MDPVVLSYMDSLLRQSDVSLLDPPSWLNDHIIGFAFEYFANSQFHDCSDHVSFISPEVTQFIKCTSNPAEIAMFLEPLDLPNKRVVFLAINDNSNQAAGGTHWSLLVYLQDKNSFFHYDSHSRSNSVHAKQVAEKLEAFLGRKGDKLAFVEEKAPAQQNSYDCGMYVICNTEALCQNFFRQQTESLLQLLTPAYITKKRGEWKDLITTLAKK", "test": "inhibition of human SENP8 cleavage activity – biochemical, luminescence, SAR follow-up (AID 504501)", "format": "functional"}, "[2]": {"biological_target": "Tyrosyl-DNA phosphodiesterase 2 (Homo sapiens, UniProt O95551)", "sequence (O95551 whole entry)": "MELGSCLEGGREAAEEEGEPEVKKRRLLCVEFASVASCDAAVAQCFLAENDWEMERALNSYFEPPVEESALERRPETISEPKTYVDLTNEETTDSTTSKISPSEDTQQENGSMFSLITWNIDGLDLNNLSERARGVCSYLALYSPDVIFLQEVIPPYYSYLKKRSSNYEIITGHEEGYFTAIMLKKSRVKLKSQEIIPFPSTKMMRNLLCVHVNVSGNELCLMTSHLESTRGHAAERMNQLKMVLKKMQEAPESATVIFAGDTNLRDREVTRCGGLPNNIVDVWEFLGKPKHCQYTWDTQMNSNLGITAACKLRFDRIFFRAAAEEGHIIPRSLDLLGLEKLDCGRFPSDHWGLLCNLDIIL", "test": "potency against TDP2 phosphodiesterase activity – biochemical, epi absorbance, IC50, dose response (AID 743297)"}, "[3]": {"biological_target": "Ras and Rab interactor 1/Tyrosine-protein kinase ABL1 (Homo sapiens, UniProt P00519+Q13671)", "sequence (P00519 whole entry)": "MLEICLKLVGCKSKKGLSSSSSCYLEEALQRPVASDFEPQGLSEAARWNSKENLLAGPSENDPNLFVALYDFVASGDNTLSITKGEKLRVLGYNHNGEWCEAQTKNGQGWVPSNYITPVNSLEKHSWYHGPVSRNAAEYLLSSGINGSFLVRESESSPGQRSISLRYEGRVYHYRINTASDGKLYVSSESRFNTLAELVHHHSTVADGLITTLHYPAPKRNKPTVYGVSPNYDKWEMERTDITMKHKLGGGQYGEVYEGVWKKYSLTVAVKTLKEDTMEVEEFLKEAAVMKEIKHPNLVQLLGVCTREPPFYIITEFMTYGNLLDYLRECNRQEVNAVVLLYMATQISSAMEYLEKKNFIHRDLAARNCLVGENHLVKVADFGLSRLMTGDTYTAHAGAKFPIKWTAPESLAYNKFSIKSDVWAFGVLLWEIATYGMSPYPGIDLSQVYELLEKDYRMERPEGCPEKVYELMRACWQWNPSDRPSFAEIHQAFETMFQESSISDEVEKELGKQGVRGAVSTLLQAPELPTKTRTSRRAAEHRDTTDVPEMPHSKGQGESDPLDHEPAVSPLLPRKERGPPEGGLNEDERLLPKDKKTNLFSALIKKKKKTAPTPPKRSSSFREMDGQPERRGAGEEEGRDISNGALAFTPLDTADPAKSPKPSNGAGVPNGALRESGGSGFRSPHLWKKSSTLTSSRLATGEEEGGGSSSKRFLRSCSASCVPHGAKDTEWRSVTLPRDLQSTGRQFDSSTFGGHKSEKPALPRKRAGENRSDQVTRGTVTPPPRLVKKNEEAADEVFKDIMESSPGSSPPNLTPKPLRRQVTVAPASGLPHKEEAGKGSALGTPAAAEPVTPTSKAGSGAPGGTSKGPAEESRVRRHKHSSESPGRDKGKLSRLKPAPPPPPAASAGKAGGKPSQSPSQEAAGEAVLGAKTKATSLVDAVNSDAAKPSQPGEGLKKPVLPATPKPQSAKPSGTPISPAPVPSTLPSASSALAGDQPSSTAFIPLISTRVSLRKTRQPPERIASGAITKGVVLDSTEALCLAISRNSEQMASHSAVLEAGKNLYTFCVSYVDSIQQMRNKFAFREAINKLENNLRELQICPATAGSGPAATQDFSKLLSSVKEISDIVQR", "sequence (Q13671 whole entry)": "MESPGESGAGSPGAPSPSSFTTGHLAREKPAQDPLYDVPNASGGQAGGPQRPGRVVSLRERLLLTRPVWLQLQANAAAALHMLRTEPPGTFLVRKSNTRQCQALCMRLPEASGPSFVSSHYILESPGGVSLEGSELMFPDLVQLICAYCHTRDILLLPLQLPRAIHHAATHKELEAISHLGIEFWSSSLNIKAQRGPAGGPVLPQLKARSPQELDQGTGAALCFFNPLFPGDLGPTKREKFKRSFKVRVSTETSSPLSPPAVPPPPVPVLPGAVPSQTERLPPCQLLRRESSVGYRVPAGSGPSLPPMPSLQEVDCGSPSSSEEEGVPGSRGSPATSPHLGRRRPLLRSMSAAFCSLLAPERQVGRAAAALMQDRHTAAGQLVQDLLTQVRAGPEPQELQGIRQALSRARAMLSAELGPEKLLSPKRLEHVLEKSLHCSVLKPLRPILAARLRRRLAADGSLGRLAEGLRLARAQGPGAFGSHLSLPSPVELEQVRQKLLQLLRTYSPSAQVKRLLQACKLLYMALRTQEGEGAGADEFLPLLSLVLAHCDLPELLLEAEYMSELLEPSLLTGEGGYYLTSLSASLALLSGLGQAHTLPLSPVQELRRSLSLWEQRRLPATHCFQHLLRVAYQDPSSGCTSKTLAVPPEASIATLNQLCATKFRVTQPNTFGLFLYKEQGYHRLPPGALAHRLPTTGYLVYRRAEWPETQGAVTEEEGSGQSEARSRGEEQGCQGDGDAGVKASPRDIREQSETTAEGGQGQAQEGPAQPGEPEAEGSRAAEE", "format": "functional"}, "[4]": {"biological_target": "T2, Sentrin-specific protease 7 (Homo sapiens, UniProt Q9BQF6)", "T2 sequence (Q9BQF6 whole entry)": "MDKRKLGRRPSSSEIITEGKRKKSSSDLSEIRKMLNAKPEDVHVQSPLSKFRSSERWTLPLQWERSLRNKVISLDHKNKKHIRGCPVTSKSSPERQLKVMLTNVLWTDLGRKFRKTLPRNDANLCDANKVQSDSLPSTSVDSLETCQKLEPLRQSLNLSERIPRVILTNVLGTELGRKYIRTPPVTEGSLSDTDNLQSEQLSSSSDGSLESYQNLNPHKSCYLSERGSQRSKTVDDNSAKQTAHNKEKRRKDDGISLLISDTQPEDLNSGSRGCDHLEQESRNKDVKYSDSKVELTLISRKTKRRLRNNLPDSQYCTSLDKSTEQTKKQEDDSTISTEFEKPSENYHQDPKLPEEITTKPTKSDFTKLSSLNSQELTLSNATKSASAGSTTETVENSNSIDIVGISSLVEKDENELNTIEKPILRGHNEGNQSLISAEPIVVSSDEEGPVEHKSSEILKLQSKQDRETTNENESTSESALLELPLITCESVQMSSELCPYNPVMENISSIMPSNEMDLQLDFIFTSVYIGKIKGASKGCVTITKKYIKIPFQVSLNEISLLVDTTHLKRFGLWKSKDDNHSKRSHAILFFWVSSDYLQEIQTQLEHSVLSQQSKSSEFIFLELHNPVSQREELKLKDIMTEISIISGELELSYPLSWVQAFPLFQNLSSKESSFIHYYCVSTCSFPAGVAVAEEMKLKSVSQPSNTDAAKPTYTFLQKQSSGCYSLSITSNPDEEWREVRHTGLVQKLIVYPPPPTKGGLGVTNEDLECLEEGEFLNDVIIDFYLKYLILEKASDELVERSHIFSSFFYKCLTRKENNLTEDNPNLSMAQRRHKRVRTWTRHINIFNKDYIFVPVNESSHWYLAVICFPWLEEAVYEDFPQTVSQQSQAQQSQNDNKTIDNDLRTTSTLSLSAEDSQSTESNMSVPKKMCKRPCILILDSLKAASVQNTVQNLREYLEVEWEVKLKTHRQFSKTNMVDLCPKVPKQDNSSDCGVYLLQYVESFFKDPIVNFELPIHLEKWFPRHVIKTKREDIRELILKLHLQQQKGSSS", "test": "inhibition of human SENP7 cleavage activity – biochemical, luminescence, SAR follow-up (AID 504497)", "format": "functional"}, "[5]": {"biological_target": "T3, Sentrin-specific protease 6 (Homo sapiens, UniProt Q9GZR1)", "T3 sequence (Q9GZR1 whole entry)": "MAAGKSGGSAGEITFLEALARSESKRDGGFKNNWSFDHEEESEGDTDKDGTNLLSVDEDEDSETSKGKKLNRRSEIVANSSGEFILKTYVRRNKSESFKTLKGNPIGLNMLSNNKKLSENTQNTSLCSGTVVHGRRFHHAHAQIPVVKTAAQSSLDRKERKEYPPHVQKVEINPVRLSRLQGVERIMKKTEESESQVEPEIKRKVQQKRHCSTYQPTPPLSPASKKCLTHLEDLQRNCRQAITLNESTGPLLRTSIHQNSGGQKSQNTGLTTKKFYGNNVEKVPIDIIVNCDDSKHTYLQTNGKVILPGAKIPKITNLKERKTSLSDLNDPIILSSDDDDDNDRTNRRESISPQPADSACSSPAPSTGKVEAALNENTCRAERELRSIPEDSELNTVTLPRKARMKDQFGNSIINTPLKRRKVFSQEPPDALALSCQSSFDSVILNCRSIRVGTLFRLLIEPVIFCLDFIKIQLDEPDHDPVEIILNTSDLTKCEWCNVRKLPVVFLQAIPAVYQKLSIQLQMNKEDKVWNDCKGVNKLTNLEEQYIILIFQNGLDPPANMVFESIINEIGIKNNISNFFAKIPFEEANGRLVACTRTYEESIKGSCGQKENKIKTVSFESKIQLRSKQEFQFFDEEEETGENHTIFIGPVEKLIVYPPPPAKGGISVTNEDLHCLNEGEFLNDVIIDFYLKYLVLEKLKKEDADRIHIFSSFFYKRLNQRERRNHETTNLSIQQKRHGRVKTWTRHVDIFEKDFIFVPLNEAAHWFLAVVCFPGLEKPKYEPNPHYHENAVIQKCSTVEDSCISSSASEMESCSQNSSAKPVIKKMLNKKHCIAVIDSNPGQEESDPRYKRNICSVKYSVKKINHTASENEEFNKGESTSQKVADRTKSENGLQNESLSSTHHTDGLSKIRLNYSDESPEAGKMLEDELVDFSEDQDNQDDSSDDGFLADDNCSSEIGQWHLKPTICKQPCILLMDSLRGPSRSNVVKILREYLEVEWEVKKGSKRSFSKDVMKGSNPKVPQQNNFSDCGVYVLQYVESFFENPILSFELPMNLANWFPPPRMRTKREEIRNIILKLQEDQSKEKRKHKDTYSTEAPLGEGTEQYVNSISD", "format": "functional"}, "[6]": {"biological_target": "T2, Sentrin-specific protease 7", "format": "functional"}, "[7]": {"biological_target": "T1, Sentrin-specific protease 8", "format": "functional"}, "[8]": {"biological_target": "T4, Caspase-3 (Homo sapiens, UniProt P42574)", "T4 sequence (P42574 whole entry)": "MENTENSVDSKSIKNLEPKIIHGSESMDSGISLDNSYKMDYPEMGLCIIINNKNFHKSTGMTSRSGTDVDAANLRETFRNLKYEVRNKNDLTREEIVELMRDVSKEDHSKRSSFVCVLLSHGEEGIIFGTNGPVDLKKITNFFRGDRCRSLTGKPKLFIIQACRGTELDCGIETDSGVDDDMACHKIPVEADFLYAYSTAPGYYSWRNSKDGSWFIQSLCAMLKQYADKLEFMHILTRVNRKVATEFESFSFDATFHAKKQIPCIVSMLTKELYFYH", "test": "SAR Analysis of small molecule inhibitors of Sentrin-specific proteases (SENPs) using a Caspase-3 Selectivity assay. [Related pubchem assays (depositor defined):AID2540, AID2599, AID434973, AID489001]", "format": "functional"}}, "note": "Active and inactive are the calls of the source. For most assays here, no stated cut-off is given here; in the data, actives have a measured IC50 and inactives only a lower limit.", "data": [{"smiles": "O=C(NN=c1c(=O)c2ccccc2c1=O)c1ccccc1", "values": [{"measurement": "IC50", "setting": "[1]", "result": "19.8 µM (active)"}, {"measurement": "IC50", "setting": "[2]", "result": "5.36 µM (active)"}, {"measurement": "IC50", "setting": "[3]", "result": "> 73.5 µM (inactive)"}, {"measurement": "IC50", "setting": "[4]", "result": "12 µM (active)"}, {"measurement": "IC50", "setting": "[5]", "result": "3.47 µM (active)"}, {"measurement": "IC50", "setting": "[6]", "result": "10.7 µM (active)"}, {"measurement": "IC50", "setting": "[7]", "result": "> 100 µM (inactive)"}, {"measurement": "IC50", "setting": "[8]", "result": "51.8 µM (active)"}]}]}
